Earlier results on three compounds are cited in publication PMC7109127 (British Journal of Cancer, 2020).

What is called half-life is the time needed for the level to fall by half in the phase considered.

The conditions of series [1]: cited from earlier work.
Series [2] deals with metastatic renal cell carcinoma. The following applies: TIVO-1; cited from earlier work.
The conditions of series [3]: TIVO-1; cited from earlier work.
In another series the test system is advanced HCC. Details: method as in PMID 18650514. The following applies: cited from earlier work.
In series [4] the test system is HCC. The following applies: first-line HCC; cited from earlier work.
The conditions of series [5]: first-line HCC; cited from earlier work.
Series [6] relates to HCC. Details: method as in PMID 30665869, PMID 26095784. The following applies: selective VEGFR-2 inhibition; cited from earlier work.

Take `CNC(=O)c1cc(Oc2ccc(NC(=O)Nc3ccc(Cl)c(C(F)(F)F)c3)cc2)ccn1` [sorafenib]: the half-life in series [1] is 25 to 48 h. Besides, in series [2], the “overall response rate (ORR)” value is 23.3% and the “progression-free survival (PFS)” value is given as 9.1 months. Also, in series [3], the diarrhoea incidence is listed as 33%, the hypertension incidence is recorded as 34% and the “palmar–plantar erythrodysesthesia incidence” value is recorded as 54%. For the same compound, the objective responses in the series with advanced HCC is on record as no more than 2%. Moreover, in the series with HCC [4], the “ORR (RECIST 1.1)” value is 6.5% and the “patients progression free at 6 months” value is on record as 35%. Also, in series [5], the “Fatigue, all grades” value is reported as 25% and the “Fatigue, grade 3–4” value was 4%.

As for ramucirumab, the “objective responses in HCC” value in the series with HCC [6] is given as “does not usually lead to objective responses”.

As to `COc1cc2nccc(Oc3ccc(NC(=O)NC4CC4)c(Cl)c3)c2cc1C(N)=O` [lenvatinib], in the series on HCC [4], the “ORR (RECIST 1.1)” value is 18.8% and the “patients progression free at 6 months” value is 55%.
